Data: US20140162879A1, “SYNERGISTIC WEED CONTROL FROM APPLICATIONS OF AMINOCYCLOPYRACHLOR AND 2,4 DICHLOROPHENOXYACETIC ACID (2,4-D)” (Dow AgroSciences LLC, priority 2012, published 2014)
Counter-ions that a name gives are not always drawn.

Tests used:
[1] = system: Senna obtusifolia (CASOB, java bean); assay: Field trial, post-emergence foliar application, weed control rating; type: in vivo
Experimental: (§1) As described in the Herbicide Handbook of the Weed Science Society of America, Ninth Edition, 2007, p. […] In some embodiments, the damage or injury to the undesired vegetation caused by the compositions and methods disclosed herein is evaluated using a scale from 0% to 100%, when compared with the untreated control vegetation, wherein 0% indicates no damage to the undesired vegetation and 100% indicates complete destruction of the undesired vegetation. […] 22 (1967)
(§2) Field trials were conducted with applications made to established grassland with naturally occurring weed populations. The target plants were treated with postemergence foliar applications when they were at the beginning of flowering stage and 50 centimeters (cm) (19.7 inches (in)) tall for Senna obtusifolia plants and at the flowering stage and 70-90 cm (27.6-35.4 in) for Melochia parviflora plants. All treatments were applied using a randomized complete block trial design, with 4 replications per treatment.
(§3) Treatments consisted of aminocyclopyrachlor in acid form and the dimethylamine salt of 2,4-D, each in water and applied alone or in combination. Spray solutions were prepared using an appropriate amount of dilution to form a 2.4 liter (L) aqueous spray solution with active ingredients in single and two way combinations. Formulated compounds were applied to the plant material with a backpack sprayer equipped with 8003 nozzles calibrated to deliver 42.8 gallons per acre (gal/acre) (400 liters per hectare (L/ha)) at a spray height of 18-20 inches (45-51 centimeters (cm)) above average plant canopy.
(§4) The treated plants were Senna obtusifolia (CASOB, java bean), or Melochia parviflora (MEOPA). The treated plots and control plots were rated blind at various intervals after application. Ratings were based on a scale of 0-100%, as discussed above, wherein 0% indicates no damage to the undesired vegetation and 100% indicates complete destruction of the undesired vegetation
(§5) Colby's equation was used to determine the herbicidal effects expected from the mixtures, as described above. The results were measured at 42 days or 58-62 days after the first application of the compositions. […] The herbicide tank mix combinations tested, application rates and ratios employed, plant species tested, and results are given below.

[2] = system: Melochia parviflora (MEOPA); assay: as above; type: in vivo; conditions: 58-62 days
Experimental: as §1, §2, §3, §4, §5

Row | SMILES | Mean % weed control ([1]; aminocyclopyrachlor alone 35 g ae/ha, 42 days after application) [%] | Mean % weed control ([2]; aminocyclopyrachlor alone 35 g ae/ha) [%] | Mean % weed control ([2]; aminocyclopyrachlor alone 70 g ae/ha) [%] | Mean % weed control ([2]; aminocyclopyrachlor alone 140 g ae/ha) [%] | Mean % weed control ([2]; aminocyclopyrachlor alone 210 g ae/ha) [%] | Mean % weed control ([1]; dimethylamine salt of 2,4-D alone 1120 g ae/ha, 42 days) [%] | Mean % weed control ([2]; dimethylamine salt of 2,4-D alone 1120 g ae/ha) [%]
1 | Nc1nc(C2CC2)nc(C(=O)O)c1Cl [Aminocyclopyrachlor, 6-amino-5-chloro-2-cyclopropylpyrimidine-4-carboxylic acid] | 72.0 | 6.8 | 10.0 | 52.1 | 81.8 |  | 
2 | O=C(O)COc1ccc(Cl)cc1Cl [Dimethylamine salt of 2,4-D, 2,4-dichlorophenoxyacetic acid] |  |  |  |  |  | 64.3 | 24.4
